Experiments:
cannabis EAs [1] = assay: Regeneration of non-transformed cannabis EAs on different SIMs, number of meristems per explant; assay type: cell-based; details: added to SIM with TDZ
Source text: Various experiments were directed to testing different culture media and different concentrations of components of the culture media, such as SIMs with different TDZ concentrations. […] Some experiments were directed to testing different SIMs on cannabis EAs and with different light conditions. For example, the seeds were sterilized and imbibed, and the EAs were extracted. In some experiments, the EAs were not transformed, and between 40 and 50 EAs were regenerated on each different SIMs. In further experiments, a subset of the EAs were plated on an SIM without plant growth regulators, such as TDZ, and the remaining EAs were plated on an SIM with 10 mg/L TDZ, with different groups of each subset being exposed to different light conditions.
The images 1680, 1681, 1683, 1684 show resulting explants regenerated in SIM with 1 mg/L TDZ, 2.5 mg/L TDZ, 5 mg/L TDZ, and 10 mg/L TDZ, respectively.
FIG. 16B is a graph illustrating the explants regenerated in the different SIMs as previously described by FIG. 16A and the number of resulting meristems.
In some experiments, additional TDZ concentrations were tested and different combinations of components in the SIM were tested.

cannabis EAs [2] = assay: Regeneration of cannabis EAs on SIM with 10 mg/L TDZ under different light conditions; assay type: cell-based; details: for explants with 3+ meristems: 10 mg/L TDZ
Source text: Various experiments were directed to testing different culture media and different concentrations of components of the culture media, such as SIMs with different TDZ concentrations. […] Based on various experiments, it is believed that cannabis plants have strong apical dominance, and breaking the apical dominance will increase transformation efficiency and result in more transgenic events. […] Some experiments were directed to testing different SIMs on cannabis EAs and with different light conditions. For example, the seeds were sterilized and imbibed, and the EAs were extracted. In some experiments, the EAs were not transformed, and between 40 and 50 EAs were regenerated on each different SIMs. In further experiments, a subset of the EAs were plated on an SIM without plant growth regulators, such as TDZ, and the remaining EAs were plated on an SIM with 10 mg/L TDZ, with different groups of each subset being exposed to different light conditions. Tables 2 and 3 summarize example media and light conditions:
The B, G, R values in Table 3 include blue, green, and red light values, along with the intensity of the light.
FIGS. 16F and 16G are graphs illustrating the results of the different light conditions on the number of meristems per explant in cultures without plant growth regulators (FIG. 16F) and with 10 mg/L TDZ (FIG. 16G). […] For example, around half of the 10 mg/L TDZ had multiple meristems, with the light II conditions resulting in 40% explants with 3+ meristems, […] explants with 3+ meristems, and light I conditions resulting in 12% explants with 3+ meristems.

| Compound | impact of SIM additive on regeneration (cannabis EAs [1]) | share of explants with multiple meristems (cannabis EAs [2]; 10 mg/L TDZ in SIM, FIG. 16G) | explants with 3+ meristems (cannabis EAs [2]; light I conditions) [%] | explants with 3+ meristems (cannabis EAs [2]; light II conditions) [%] | explants with 3+ meristems (cannabis EAs [2]; light II conditions (printed a second time)) [%] |
| --- | --- | --- | --- | --- | --- |
| O=C(O)Cc1c[nH]c2ccccc12 [IAA, indoleacetic acid] | did not have a significant positive impact |  |  |  |  |
| O=C(Nc1ccccc1)Nc1cnns1 [TDZ, thidiazuron] |  | around half | 12 | 40 | 24 |
| Adenine Hemisulfate | did not have a significant positive impact |  |  |  |  |

— US20240376484A1, “TRANSFORMING CANNABACEAE CELLS” (Cibus US LLC, priority 2021, published 2024)
